{"source": "paper PMC11036078", "about": "“PD‐1 inhibition with retifanlimab and/or arginase inhibition with INCB001158 in Japanese patients with solid tumors: A phase I study” (Cancer Medicine, 2024)", "key": {"arginase": {"test_system": "arginase", "assay": "Pharmacodynamics: plasma arginine levels", "assay_type": "in vivo, Japanese patients", "details": "change from baseline", "method": "Pharmacodynamics of INCB001158 alone or in combination were assessed as an exploratory objective. Urine was collected at regular intervals from patients in the INCB001158 monotherapy and combination groups to assess urinary orotic acid levels and evaluate whether INCB001158 inhibits the urea cycle. Plasma samples from patients in these groups were also assessed for ammonia, arginine, and ornithine levels."}, "advanced solid tumors": {"test_system": "advanced solid tumors", "assay": "Clinical activity by investigator per RECIST v1.1 (ORR, DCR, DOR)", "assay_type": "in vivo, Japanese patients", "details": "n = 6 per group", "method": "Preliminary clinical activity of single‐agent retifanlimab and INCB001158, and the combination, was an additional secondary endpoint. Diagnostic imaging was performed by computed tomography scan every 8 ± 1 weeks. Clinical activity was assessed by measuring overall response rate (ORR), defined as the percentage of patients experiencing a complete or partial response (CR or PR) as determined by the investigator according to Response Evaluation Criteria in Solid Tumors (RECIST) v1.1; disease control rate (DCR), defined as the percentage of patients maintaining either an objective response or stable disease (SD) for at least 12 weeks per RECIST v1.1; and duration of response (DOR), defined as the time from first observed response until onset of progressive disease (PD) as determined by the investigator according to RECIST v1.1 or death from any cause.\nSafety and efficacy analyses were conducted in the full analysis set, which comprised all enrolled patients who received at least 1 dose of the study drug.\nSafety data were summarized using descriptive statistics. PK parameters were summarized by study part, treatment regimen, cohort, dose levels, and/or visit. ORR and DCR were reported with their exact 95% confidence intervals (CIs); DOR was based on the Kaplan–Meier estimate of the distribution function, and the estimated median along with 95% CI was reported. Statistical analyses were performed using SAS® software v9.4 or later (SAS Institute Inc., Cary, NC, USA)."}}, "note": "Where “and” joins values, the source holds several entries; their conditions need not be identical. Equal entries are not always repeated.", "data": [{"molecule": "C[C@H](N)C(=O)N1C[C@H](CCCB(O)O)[C@](N)(C(=O)O)C1", "note": "[INCB001158]", "values": [{"measurement": "Plasma arginine levels", "setting": "arginase", "value": "Immediate and consistent increases"}, {"measurement": "Best overall response: Complete response", "setting": "advanced solid tumors; RECIST v1.1, investigator", "value": "0 n (%)"}, {"measurement": "Best overall response: Partial response", "setting": "advanced solid tumors; RECIST v1.1, investigator", "value": "0 n (%)"}, {"measurement": "Best overall response: Progressive disease", "setting": "advanced solid tumors; RECIST v1.1, investigator", "value": "3 (50.0) n (%)"}, {"measurement": "Best overall response: Stable disease", "setting": "advanced solid tumors; RECIST v1.1, investigator", "value": "3 n (%) and 3 (50.0) n (%)"}, {"measurement": "Objective response rate", "setting": "advanced solid tumors; RECIST v1.1, investigator", "value": "0 [0–45.9] n (%) [95% CI]"}, {"measurement": "DCR", "setting": "advanced solid tumors; RECIST v1.1, 95% CI, 11.8–88.2", "value": 50, "unit": "%"}]}]}
